Results taken from US9872883B2, “Methods of producing anamorelin hydrochloride having controlled chloride content” (HELSINN HEALTHCARE SA, priority 2012, dated 2018).
Converted amounts (≈) assume the structure as drawn. Structures can show the parent of a compound that is named as a salt.

Assays:
Type in all cases: physicochemical
[1] = Long-term stability of batches having differing chloride contents, % increase in total impurities
Experimental: The long-term stability of three separate batches of anamorelin monohydrochloride (or composition comprising anamorelin monohydrochloride) having differing chloride contents were evaluated for stability at 25° C./60% relative humidity for one, two and three years, and 40° C./75% relative humidity for one, three and six months. The results are presented below in Table 3C. % Increase in Table 3C was calculated by the following formula. % Increase=(M−I)/I×100
I: initial total impurity (%)
M: measured total impurity (%) at specific time (e.g., 3 months, 6 month and so forth)

[2] = Stability testing for anamorelin dihydrochloride relative to the monohydrochloride and free base at 40° C./75% relative humidity
Experimental: Stability testing for anamorelin dihydrochloride relative to the monohydrochloride and anamorelin free base at 40° C./75% relative humidity is reported below in Table 3D. For the anamorelin dihydrochloride preparation, anamorelin free base was dissolved in ethyl acetate and a molar excess of hydrochloric acid in ethyl acetate was added into the mixture to precipitate anamorelin dihydrochloride. The resulting anamorelin dihydrochloride was filtered and dried (chloride content approximately 12.2%). HPLC Area % in Table 3D refers to the amount of converted value of anamorelin free base in samples.

[3] = Solubility test in distilled water (HPLC); conditions: distilled water (initial pH 7)
Experimental: A solution of standard curve was prepared to 356 μmol/L by diluting standard substance (anamorelin free base (quantitative value: 93.90%), 86.6 mmol/L, isopropyl acetate solution) with acetonitrile. In addition, a sample solution was prepared according to the process that test compound (about 100 mg) added into distilled water (10.00 g), the solution was mixed for 10 minutes at 50° C. and then was placed overnight, obtained suspension was filtered by syringe with filter (0.2 μm) and the filtrate (48.93 mg) was diluted with acetonitrile (10 mL). A solution of standard curve and a sample solution (each 5 μL) were determined by injecting into HPLC (GULLIVER1500 HPLC system, JASCO Corporation).

[4] = Stability testing of spray dried amorphous anamorelin monohydrochloride (Batch A), purity and impurities by HPLC; parameters: Impurity 1 / Impurity 2 / Impurity 3 / Impurity 4 / Impurity 5 / Impurity 6 / Impurity 7: unit not given here
Experimental: The purity of the anamorelin monohydrochloride (or composition comprising anamorelin monohydrochloride) was measured using high performance liquid chromatograph (HPLC) (Hewlett-Packard HP 1100 HPLC System, Agilent Technologies Inc.). The concentrated aqueous solution of anamorelin monohydrochloride A of example 1 was concentrated by spray drying using Niro QSD-3.6 (trade mark, GEA process engineering Inc.) to afford anamorelin monohydrochloride referred to as Batch A in Tables 2A and 2B) in an amorphous state. RRT refers to the relative retention time of the impurity versus anamorelin. In addition, the purity was converted into the amount of anamorelin free base within a sample without any other organic solvent since anamorelin monohydrochloride (or composition comprising anamorelin monohydrochloride) was dissolved in the solvent to be measured by HPLC condition.

SMILES: CN(C)N(C)C(=O)[C@@]1(Cc2ccccc2)CCCN(C(=O)[C@@H](Cc2c[nH]c3ccccc23)NC(=O)C(C)(C)N)C1 [5.6%]
- % Increase in Total Impurities From T0 ([1]; 25° C./60% RH, 1 Y): 10%
- % Increase in Total Impurities From T0 ([1]; 25° C./60% RH, 2 Y): 48%
- % Increase in Total Impurities From T0 ([1]; 25° C./60% RH, 3 Y): 29%

SMILES: CN(C)N(C)C(=O)[C@@]1(Cc2ccccc2)CCCN(C(=O)[C@@H](Cc2c[nH]c3ccccc23)NC(=O)C(C)(C)N)C1 [5.9%]
- % Increase in Total Impurities From T0 ([1]; 25° C./60% RH, 1 Y): 0%
- % Increase in Total Impurities From T0 ([1]; 25° C./60% RH, 2 Y): 20%
- % Increase in Total Impurities From T0 ([1]; 25° C./60% RH, 3 Y): 20%
- % Increase in Total Impurities From T0 ([1]; 40° C./75% RH, 1 M): 0%
- % Increase in Total Impurities From T0 ([1]; 40° C./75% RH, 3 M): 21%
- % Increase in Total Impurities From T0 ([1]; 40° C./75% RH, 6 M): 17%

SMILES: CN(C)N(C)C(=O)[C@@]1(Cc2ccccc2)CCCN(C(=O)[C@@H](Cc2c[nH]c3ccccc23)NC(=O)C(C)(C)N)C1 [6.2%]
- % Increase in Total Impurities From T0 ([1]; 25° C./60% RH, 1 Y): 85%
- % Increase in Total Impurities From T0 ([1]; 25° C./60% RH, 2 Y): 114%
- % Increase in Total Impurities From T0 ([1]; 25° C./60% RH, 3 Y): 100%
- % Increase in Total Impurities From T0 ([1]; 40° C./75% RH, 1 M): 107%
- % Increase in Total Impurities From T0 ([1]; 40° C./75% RH, 3 M): 100%
- % Increase in Total Impurities From T0 ([1]; 40° C./75% RH, 6 M): 171%

SMILES: CN(C)N(C)C(=O)[C@@]1(Cc2ccccc2)CCCN(C(=O)[C@@H](Cc2c[nH]c3ccccc23)NC(=O)C(C)(C)N)C1 [6.3%]
- % Increase in Total Impurities From T0 ([1]; 25° C./60% RH, 1 Y): 200%
- % Increase in Total Impurities From T0 ([1]; 25° C./60% RH, 2 Y): 340%
- % Increase in Total Impurities From T0 ([1]; 25° C./60% RH, 3 Y): 360%
- % Increase in Total Impurities From T0 ([1]; 40° C./75% RH, 1 M): 140%
- % Increase in Total Impurities From T0 ([1]; 40° C./75% RH, 3 M): 400%
- % Increase in Total Impurities From T0 ([1]; 40° C./75% RH, 6 M): 500%

SMILES: CN(C)N(C)C(=O)[C@@]1(Cc2ccccc2)CCCN(C(=O)[C@@H](Cc2c[nH]c3ccccc23)NC(=O)C(C)(C)N)C1 [Anamorelin Di-HCl, reference compound]
- HPLC Area % ([2]; 1M): 98.2%
- HPLC Area % ([2]; 3M): 97.1%
- HPLC Area % ([2]; I.T.): 98.9%
- long-term stability (in words) ([2]; relative to the monohydrochloride): easy to be changed

SMILES: CN(C)N(C)C(=O)[C@@]1(Cc2ccccc2)CCCN(C(=O)[C@@H](Cc2c[nH]c3ccccc23)NC(=O)C(C)(C)N)C1 [Anamorelin Free Base, (3R)1-(2-methylalanyl-D-tryptophyl)-3-(phenylmethyl)-3-piperidinecarboxylic acid 1,2,2trimethylhydrazide]
- HPLC Area % ([2]; 1M): 99.9%
- HPLC Area % ([2]; 3M): 99.7%
- HPLC Area % ([2]; I.T.): 99.7%
- solubility [3]: 0.04 mg/mL (≈ 73.2 µM)

SMILES: CN(C)N(C)C(=O)[C@@]1(Cc2ccccc2)CCCN(C(=O)[C@@H](Cc2c[nH]c3ccccc23)NC(=O)C(C)(C)N)C1 [anamorelin monohydrochloride]
- stability (in words) ([4]; six months under each set of conditions): nearly unchanged
- long-term stability (in words) ([1]; three years, 25° C./60% RH): nearly unchanged
- HPLC Area % ([2]; 1M, listed as Anamorelin Mono-HCl): 99.3%
- HPLC Area % ([2]; 3M, listed as Anamorelin Mono-HCl): 99.2%
- HPLC Area % ([2]; I.T., listed as Anamorelin Mono-HCl): 99.9%
- solubility [3]: >333 mg/mL

SMILES: CN(C)N(C)C(=O)[C@@]1(Cc2ccccc2)CCCN(C(=O)[C@@H](Cc2c[nH]c3ccccc23)NC(=O)C(C)(C)N)C1 [anamorelin]
- Impurity 1 ([4]; 25° C./60% RH, 1 month): <0.05
- Impurity 2 ([4]; 25° C./60% RH, 1 month): <0.05
- Impurity 3 ([4]; 25° C./60% RH, 1 month): <0.05
- Impurity 4 ([4]; 25° C./60% RH, 1 month): <0.05
- Impurity 5 ([4]; 25° C./60% RH, 1 month): <0.05
- Impurity 6 ([4]; 25° C./60% RH, 1 month): <0.05
- Impurity 7 ([4]; 25° C./60% RH, 1 month): <0.05
- anamorelin (HPLC purity) ([4]; 25° C./60% RH, 1 month): 100.0%
- Impurity 1 ([4]; 25° C./60% RH, 3 months): <0.05
- Impurity 2 ([4]; 25° C./60% RH, 3 months): <0.05
- Impurity 3 ([4]; 25° C./60% RH, 3 months): <0.05
- Impurity 4 ([4]; 25° C./60% RH, 3 months): <0.05
- Impurity 5 ([4]; 25° C./60% RH, 3 months): <0.05
- Impurity 6 ([4]; 25° C./60% RH, 3 months): <0.05
- Impurity 7 ([4]; 25° C./60% RH, 3 months): <0.05
- anamorelin (HPLC purity) ([4]; 25° C./60% RH, 3 months): 100.0%
- Impurity 1 ([4]; 25° C./60% RH, 6 months): <0.05
- Impurity 2 ([4]; 25° C./60% RH, 6 months): <0.05
- Impurity 3 ([4]; 25° C./60% RH, 6 months): <0.05
- Impurity 4 ([4]; 25° C./60% RH, 6 months): <0.05
- Impurity 5 ([4]; 25° C./60% RH, 6 months): <0.05
- Impurity 6 ([4]; 25° C./60% RH, 6 months): <0.05
- Impurity 7 ([4]; 25° C./60% RH, 6 months): <0.05
- anamorelin (HPLC purity) ([4]; 25° C./60% RH, 6 months): 100.0%
- Impurity 1 ([4]; 40° C./75% RH, 1 month): <0.05
- Impurity 2 ([4]; 40° C./75% RH, 1 month): <0.05
- Impurity 3 ([4]; 40° C./75% RH, 1 month): <0.05
- Impurity 4 ([4]; 40° C./75% RH, 1 month): <0.05
- Impurity 5 ([4]; 40° C./75% RH, 1 month): <0.05
- Impurity 6 ([4]; 40° C./75% RH, 1 month): <0.05
- Impurity 7 ([4]; 40° C./75% RH, 1 month): <0.05
- anamorelin (HPLC purity) ([4]; 40° C./75% RH, 1 month): 100.0%
- Impurity 1 ([4]; 40° C./75% RH, 3 months): <0.05
- Impurity 2 ([4]; 40° C./75% RH, 3 months): <0.05
- Impurity 3 ([4]; 40° C./75% RH, 3 months): <0.05
- Impurity 4 ([4]; 40° C./75% RH, 3 months): <0.05
- Impurity 5 ([4]; 40° C./75% RH, 3 months): <0.05
- Impurity 6 ([4]; 40° C./75% RH, 3 months): <0.05
- Impurity 7 ([4]; 40° C./75% RH, 3 months): <0.05
- anamorelin (HPLC purity) ([4]; 40° C./75% RH, 3 months): 100.0%
- Impurity 1 ([4]; 40° C./75% RH, 6 months): <0.05
- Impurity 2 ([4]; 40° C./75% RH, 6 months): <0.05
- Impurity 3 ([4]; 40° C./75% RH, 6 months): <0.05
- Impurity 4 ([4]; 40° C./75% RH, 6 months): <0.05
- Impurity 5 ([4]; 40° C./75% RH, 6 months): <0.05
- Impurity 6 ([4]; 40° C./75% RH, 6 months): <0.05
- Impurity 7 ([4]; 40° C./75% RH, 6 months): <0.05
- anamorelin (HPLC purity) ([4]; 40° C./75% RH, 6 months): 100.0%
- Impurity 1 ([4]; Initial): <0.05
- Impurity 2 ([4]; Initial): <0.05
- Impurity 3 ([4]; Initial): <0.05
- Impurity 4 ([4]; Initial): <0.05
- Impurity 5 ([4]; Initial): <0.05
- Impurity 6 ([4]; Initial): <0.05
- Impurity 7 ([4]; Initial): <0.05
- anamorelin (HPLC purity) ([4]; Initial): 100.0%
